Consider 1 compound from patent publication US20140161342A1, “DENSITY-BASED METHOD OF COMPARING IMAGES AND DETECTION OF MORPHOLOGICAL CHANGES USING THE METHOD THEREOF” (CENTRE NATIONAL DE LA RECHERCHE SCIENTIFIQUE CNRS, priority 2011, published 2014).

Common to all, as to format: cell-based, Human
The test system of test [1] is multivesicular bodies (MVB). The test is described as follows: Density-based comparison of multivesicular body (MVB) morphology, CD63 stain, micropatterned RPE-1 cells. The settings on record: nocodazole 10 μM, 1 h at 4° C. and 1 h at 37° C., 40 cells of CG, 40 cells of TG. As to the method: Human RPE-1 cells kept in growth medium were trypsinized and seeded on micropattern-printed coverslips as described in EP 1664266. To depolymerize microtubules, nocodazole was added to a final concentration of 10 μM to TG. TG and CG were both subsequently incubated for 1 h at 4° C. and 1 h at 37° C. Cells were fixed with 4% (wt/vol) paraformaldehyde (PFA) and proceeded for indirect immunofluorescence staining with primary α-CD63 antibodies (Invitrogen) to visualize MVB, α-GM130 antibodies to visualize the Golgi apparatus and α-Sec13 antibodies to visualize ERES as well as fluorophore-coupled secondary antibodies. 3D image stacks of n cells of each condition (TG and CG) were acquired with 100× magnification and Z-series every 0.2 μm. […] The coordinates of the segmented structures from all cells were aligned using the micropattern geometry and the coordinate sample of the TG was compared with the coordinate sample of the CG using the above-described method for each intracellular compartment analyzed.
Parts A and B of FIG. 5 illustrate representative fluorescent images of one cell from CG (designated by “Crtl”) and one cell from TG (designated by “NZ” for nocodazole) stained for MVB. […] As shown in prior art, the steady-sate three-dimensional organization of MVB is constant in micropatterned cells as analyzed here. […]

The test system of test [2] is Golgi apparatus. The test is described as follows: Density-based comparison of Golgi apparatus morphology, GM130 stain, micropatterned RPE-1 cells. The settings on record: nocodazole 10 μM, 15 cells of CG, 20 cells of TG. As for the experimental part:
(§1) Human RPE-1 cells kept in growth medium were trypsinized and seeded on micropattern-printed coverslips as described in EP 1664266. To depolymerize microtubules, nocodazole was added to a final concentration of 10 μM to TG. TG and CG were both subsequently incubated for 1 h at 4° C. and 1 h at 37° C. Cells were fixed with 4% (wt/vol) paraformaldehyde (PFA) and proceeded for indirect immunofluorescence staining with primary α-CD63 antibodies (Invitrogen) to visualize MVB, α-GM130 antibodies to visualize the Golgi apparatus and α-Sec13 antibodies to visualize ERES as well as fluorophore-coupled secondary antibodies. 3D image stacks of n cells of each condition (TG and CG) were acquired with 100× magnification and Z-series every 0.2 μm. Images were deconvolved and segmented in order to detect signals that are fifteen-fold larger than noise. The coordinates of the segmented structures from all cells were aligned using the micropattern geometry and the coordinate sample of the TG was compared with the coordinate sample of the CG using the above-described method for each intracellular compartment analyzed.
Parts A and B of FIG. 6 illustrate representative fluorescent images of one cell from CG (designated by “Crtl”) and one cell from TG (designated by “NZ” for nocodazole) stained for the Golgi apparatus. […]

The test system of test [3] is endoplasmic reticulum exit sites (ERES). Briefly: Density-based comparison of endoplasmic reticulum exit sites (ERES), Sec13 stain, micropatterned RPE-1 cells. The note with it: nocodazole 10 μM, 15 cells of CG, 11 cells of TG. As for the experimental part: as §1
Parts A and B of FIG. 7 illustrate representative fluorescent images of one cell from CG (designated by “Crtl”) and one cell from TG (designated by “NZ” for nocodazole) stained for ERES. […]

In test [4] the test system is multivesicular bodies (MVB). The test is described as follows: Live cell analysis of MVB in unconstrained EGFP-CD63-expressing RPE-1 cells. The settings on record: nocodazole 20 μM, last six time frames after addition. As to the method: In this example, morphological changes in the steady-state organization of MVB were monitored in a time period between two instants t1 and t2 when using a drug treatment. Thus, the density-based method of the present invention is applied to life cell analysis. More precisely, MVB were analyzed in unconstrained cells before and after treatment with nocodazole, illustrating that the present invention is not limited to the comparison of constrained cells but can also apply to the comparative study of unconstrained cells.
EGFP-CD63-expressing stable cells (generated by transfection of the plasmid pEGFP-CD63, Ostrowski et al. NATURE CELL BIOLOGY, January 2010) into RPE-1 cells and selection with 500 μg/ml geneticin) were seeded on iwaki glass base dishes (Asahi Glass) for live cell observation. To depolymerize microtubules, nocodazole (NZ) was added to a final concentration of 20 μM. […] The first two groups contained images in the absence of the drug (CG1 and CG2) and the second two groups contained images in the presence of the drug (TG1 and TG2) recorded after the addition of the drug. […]
Groups CG1 and CG2 are non-treated control groups with 1080 and 1002 detected CD63-positive structures that were acquired before addition of the drug.
Groups TG1 and TG2 are treated test groups containing 1019 and 801 structures that were recorded after the addition of the drug. […]

Test [5] deals with microtubules. The test is described as follows: Density-based comparison of microtubules (β-tubulin stain), micropatterned RPE-1 cells. The arrangement: dose or concentration left out as unconfirmed. The note with it: nocodazole; 16 cells of CG, 16 cells of TG; tubulin structures.
Procedure: Human RPE-1 cells kept in growth medium were trypsinized and seeded on micropattern-printed coverslips as described in EP 1664266. To depolymerize microtubules, nocodazole was added to a final concentration of 10 M to TG. TG and CG were both subsequently incubated for 1 h at 4° C. and 1 h at 37° C. Cells were fixed with 4% (wt/vol) paraformaldehyde (PFA) and proceeded for indirect immunofluorescence staining with primary β-tubulin antibodies (Sigma-Aldrich) to visualize microtubules and fluorophore-coupled secondary antibodies.
3D image stacks of n cells of each condition (TG and CG) were acquired with 100× magnification and Z-series every 0.2 m. Images were deconvolved and segmented in order to detect signals that are larger than noise. To represent continuous structures (microtubules and Rab8-marked membranes domains) by a cloud of coordinates, we “cut” them in several small structures by increasing the watershed during segmentation. The coordinates of the segmented structures from all cells were aligned using the micropattern geometry and the coordinate sample of the TG was compared with the coordinate sample of the CG using the above-described method for each intracellular compartment analyzed.
Each coordinate stands for one fluorescent fragment. […]

For `COC(=O)Nc1nc2ccc(C(=O)c3cccs3)cc2[nH]1` [nocodazole], the “P2D-value, comparison TG/CG” value is 1.589*10^−5 in test [1], 0.9524*10^−2 in test [2], 0.3416*10^−3 in test [3] and 6.5862*10^−41 in test [5]. Further, the “P3D-value, comparison TG/CG” value is on record as 1.280*10^−11 in test [1], 1.8741*10^−2 in test [2], 0.1118*10^−6 in test [3] and 2.7758*10^−228 in test [5]. The “P2D-value, non-treated group CG1 vs treated group TG2” value in test [4] is listed as 4.00*10^−6. The “P3D-value, non-treated group CG1 vs treated group TG2” value in test [4] is given as 4.84*10^−6.
